Values quoted from earlier work in patent US20180000827A1 (SYNTHON B.V., priority 2014, published 2018).

COc1cc2ncnc(Nc3ccc(F)c(Cl)c3)c2cc1OCCCN1CCOCC1 [Gefitinib, 4-(3-chloro-4-fluorophenylamino)-7-methoxy-6-[3-(4-morpholinyl)propoxy] quinazoline]
solubility dependence on pH: highly dependent upon pH
